Consider two substances from publication PMC10597491 (PLOS ONE, 2023).

Bridge positions count the residues as written; N and C are the ends. Ends that are not written are not given here.

Holding throughout (assay type): cell-based
Experiment [1] concerns rested human CD8+ T-cells. Briefly: IL-7Rα (CD127) internalization assay. The procedure:
In previous studies, the decline of IL-7Rα on the surface of IL-7-treated CD8+ cells was reported to proceed with approximately linear kinetics, reaching ~80% disappearance of receptor over 6 hours at 37°C [49]. […] Surface IL-7R was pre-loaded with saturating concentrations of the agonists on ice and shifted to 37°C to allow internalization, then shifted back to ice to stop internalization. […] A parallel assay with all incubations held on ice for the duration of the time course was also run.
Fig 8 Test compounds induce decrease in cell surface IL-7Rα. […] Following timed incubations, the samples were stained, fixed, and analyzed by flow cytometry; and data was collected as median fluorescence intensity (MFI), as detailed in Methods. […] The primary flow data (MFI) is shown in S3 Fig.
CD8+ cells isolated by negative selection from PBMCs with Stem Cell Technology Easy Sep CD8+ kit, or obtained freshly prepared from Stanford Blood Center, were rested overnight in RPMI 1640 containing Pen/Strep, L-Glutamine and 20% FBS; then resuspended to 7.0 x10^6 cells/mL. […] To determine levels of cell surface IL-7Rα, analysis was performed by flow cytometry to determine median fluorescence intensity (MFI) of cells at each condition. […]

For experiment [2], the system named is human naive CD8+ T-cells. Briefly: pSTAT5 ELISA in isolated naive CD8+ T-cells. The following applies: for EC50: rested naive CD8+ T-cells, 15 min exposure, pSTAT5 ELISA. The procedure: (§1) We first assessed induction kinetics over a time course of compound exposure. Saturating concentrations of each of the compounds, previously determined to elicit maximum response of pSTAT5 signaling, were applied to the cells and pSTAT5 levels monitored for up to 2 hours. The resulting time-response profiles served to compare the kinetics of signal induction for the different compounds, and to determine Tmax for correct time of exposure in subsequent dose response determinations for each compound. In these studies, IL-7-induced pSTAT5 accumulation rose rapidly to a maximum by 15 to 30 minutes, then declined slowly for the remainder of the time course.
(§2) Naive CD4+ and CD8+ T-cells, were separately isolated by negative selection from PBMCs, and rested overnight prior to compound exposure.
(§3) For preparation of lymphocyte subsets, naïve CD4+ T-cells were isolated via two-stage negative selection with EasySep™ Human Naïve CD4+ T-Cell Isolation Kit II (Stemcell Technologies Cat# 17555); and CD8+ T-cells were isolated by negative selection from PBMCs with Stem Cell Technology Easy Sep CD8+ kit, or obtained freshly prepared from Stanford Blood Center. Rested naïve CD4+ T-cells or CD8+ T-cells were prepared by overnight incubation at 37°C, 5% CO2 in CTS™ OpTmizer™ T-Cell Expansion SFM (ThermoFisher Scientific Cat# A1048501).
(§4) Cells were deprived of growth factors by overnight incubation at 5×10^5 cells/mL in starvation medium (RPMI 1640 + 4.5 g/L glucose + 0.2% FBS + 2 mM L-glutamine + 1 mM NaPyr + 10 mM HEPES + 0.5x penicillin-streptomycin with no cytokine supplement) in T75 flasks. For assays, cells were plated in 96-well V-bottom plates at 2×10^5 cells/well. […] Following incubation, cell extracts were prepared by adding a mixture of 10x Cell Lysis Buffer (Cell Signaling Technology Cat# 9803) and 100x HALT Phosphatase and Protease Inhibitor Cocktail (Thermo Fisher Cat# 78442) directly to the wells. The plates were agitated at 25°C for 5 min to prepare cell extracts for immediate use or to be stored at -80°C until assay. […]

Experiment [3] relates to human naive CD4+ T-cells. Nature of the experiment: pSTAT5 ELISA in isolated naive CD4+ T-cells. The following applies: for EC50: rested naive CD4+ T-cells, 15 min exposure, pSTAT5 ELISA. The procedure: as §1, §2, §3, §4
In general terms: In an ELISA, binding on a coated surface is turned into a signal by an enzyme label.

A word on the EC50: it is the concentration at which the effect is half-maximal. Higher therefore signals a less potent agent. Consider “Ac-GWGIPWCTLDPGSLQCAWLGKHGGGGSGGVVCQDWEGVELCWQGG (disulfide 7-16, 32-41) [MDK1472]”, for which the “rate of surface decline of IL-7Rα” value in experiment [1] (1 μM, 37°C) was “tracked very closely with that induced by IL-7”. Also, the “agonist efficacy, CD8+” value in experiment [2] (dose response at 15 min) was “full agonists”. In addition, the results for the concentration for a half-maximal effect (EC50) in experiment [2] and in experiment [3] were 0.35 nM and 1.3 nM, respectively. Moreover, the “agonist efficacy, CD4+” value in experiment [3] (dose response at 15 min) is on record as “full agonists”.
On to IL-7: human IL-7 cytokine (Peprotech), for which the “loss of IL-7Rα surface density” value in experiment [1] (6 hours at 37°C, 10 nM IL-7) was 60%. The concentration for a half-maximal effect (EC50) worked out at 0.0028 nM in experiment [2] and 0.0025 nM in experiment [3].
